Consider three molecules from PMC12030627, “Radioiodinated Bicyclic RGD Peptide Derivatives for Enhanced Tumor Accumulation” (Pharmaceuticals, 2025).

Data set [1] can be described thus: Albumin binding, size-exclusion spin column elution after incubation with mouse plasma. In kind it is in vitro ADME. The conditions noted are these: 37 kBq in 50 μL PBS(–) incubated 37 °C 10 min with 200 μL mouse plasma (male ddY); Sephadex G-50 Fine spin column, 2000 rpm 2 min; γ-counter; eluted/added radioactivity × 100. Here is the method: (§1) To assess albumin binding, mouse plasma was obtained by centrifugation of whole blood from male ddY mice (9 weeks old). [^125I]bcRGD, [^125I]bcRGDpal, [^125I]bcRGDiba, or [^125I]bcRGDdimer (37 kBq) in 50 μL PBS(–) was incubated at 37 °C for 10 min with 200 μL of PBS(–), mouse plasma, or human serum albumin (HSA, 45 mg/mL in PBS(–); Wako Pure Chemical Industries, Osaka, Japan). The mixtures were applied to gel filtration spin columns (Sephadex G-50 Fine; Cytiva, Tokyo, Japan), centrifuged (2000 rpm, 2 min), and radioactivity in the eluted fraction was measured with a γ-counter. The high molecular weight fraction was calculated as the elution ratio = (radioactivity in elution)/(added radioactivity) × 100 (%).
(Size exclusion chromatography separates by hydrodynamic size, large species first.)

In data set [2] the target is T1, human serum albumin (HSA) (Homo sapiens, UniProt P02768).
T1 construct: purchased Wako Pure Chemical Industries
As to the kind of experiment: Albumin binding, size-exclusion spin column elution after incubation with HSA. The data set is classed as in vitro ADME. The conditions noted are these: 37 kBq in 50 μL PBS(–) incubated 37 °C 10 min with 200 μL HSA 45 mg/mL in PBS(–); Sephadex G-50 Fine spin column, 2000 rpm 2 min; γ-counter; eluted/added radioactivity × 100. On the procedure: as §1

Data set [3] is described as follows: Octanol–water distribution coefficient (log D). The data set is classed as physicochemical. The conditions noted are these: shake-flask 1-octanol/PBS(–) pH 7.4, 1.0 mL each (1:1), 40 kBq, vortexed 2 min, centrifuged 5000 rpm 5 min, radioactivity by γ-counter, mean of n = 4. Here is the method: For log D determination, [^125I]bcRGD, [^125I]bcRGDpal, [^125I]bcRGDiba, or [^125I]bcRGDdimer (40 kBq) was dissolved in 1.0 mL PBS(–) (pH 7.4) and mixed with 1.0 mL 1-octanol (1:1, v/v). The mixture was vortexed for 2 min and centrifuged at 5000 rpm for 5 min. Radioactivity in 0.5 mL of each phase was measured using a γ-counter, and log D values were calculated based on the radioactivity distribution (n = 4).

Structures are written as SMILES. Where “and” joins values, the source holds several entries; their conditions need not be identical. Equal values may be shown once. Starred links: 1 amine or outer side, 2 acyl side, 3 side chain; linkers in the order of their positions; H or OH if unused. Positions of bridges follow the written chain, without caps; N, C: chain ends. Non-standard residues stand in square brackets, D forms with d. Residues, ends and D or L forms follow the SMILES beside them. *: point of attachment. Butanoyl(4-(4-I-phenyl)) = O=C(CCCc1ccc(I)cc1)*; TBMB = c1c(C[*:1])cc(C[*:3])cc1C[*:2]; Palmitoyl = CCCCCCCCCCCCCCCC(=O)*; Benzoyl(3-I) = O=C(c1cccc(I)c1)*; 4Abz = Nc1ccc(C(=O)O)cc1 Some results are limits rather than exact numbers.

T1 sequence (P02768 25-609): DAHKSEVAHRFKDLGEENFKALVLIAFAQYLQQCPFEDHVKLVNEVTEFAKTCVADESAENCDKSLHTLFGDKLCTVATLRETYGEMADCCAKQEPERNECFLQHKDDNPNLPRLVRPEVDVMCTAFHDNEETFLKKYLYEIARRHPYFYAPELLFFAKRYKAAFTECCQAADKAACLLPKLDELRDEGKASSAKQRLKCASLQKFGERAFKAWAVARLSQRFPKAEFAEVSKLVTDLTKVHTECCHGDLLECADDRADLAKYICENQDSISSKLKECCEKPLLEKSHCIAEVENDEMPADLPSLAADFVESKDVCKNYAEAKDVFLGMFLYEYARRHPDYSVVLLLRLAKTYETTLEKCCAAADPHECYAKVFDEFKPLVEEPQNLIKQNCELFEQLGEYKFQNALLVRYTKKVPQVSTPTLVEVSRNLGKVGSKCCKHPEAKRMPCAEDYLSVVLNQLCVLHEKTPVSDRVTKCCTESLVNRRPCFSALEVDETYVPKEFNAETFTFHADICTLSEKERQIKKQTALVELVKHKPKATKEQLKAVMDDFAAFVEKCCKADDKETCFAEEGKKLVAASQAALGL

As a reminder, the logD is the decadic logarithm of the distribution of all forms, ionised or not, between an organic phase and buffer at a given pH. Consider `N=C(N)NCCC[C@@H]1NC(=O)[C@H]2CSCc3cc(cc(c3)CSC[C@H](C(N)=O)NC(=O)[C@H](CC(=O)O)NC(=O)CNC1=O)CSC[C@H](NC(=O)CNC(=O)[C@H](CO)NC(=O)c1ccc(NC(=O)CNC(=O)[C@H](CO)NC(=O)[C@@H]3CCCN3C(=O)[C@@H]3CCCN3C(=O)[C@@H]3CCCN3C(=O)CCc3cn(CC[C@H](NC(=O)CCNC(=O)c4cccc(I)c4)C(=O)N4CCC[C@H]4C(=O)N4CCC[C@H]4C(=O)N4CCC[C@H]4C(=O)N[C@@H](CO)C(=O)NCC(=O)Nc4ccc(C(=O)N[C@@H](CO)C(=O)NCC(=O)N[C@H]5CSCc6cc7cc(c6)CSC[C@@H](NC(=O)[C@H](CCC(N)=O)NC(=O)[C@@H]6CCCN6C(=O)[C@H](Cc6c[nH]cn6)NC5=O)C(=O)N[C@@H](CCCNC(=N)N)C(=O)NCC(=O)N[C@@H](CC(=O)O)C(=O)N[C@@H](C(N)=O)CSC7)cc4)nn3)cc1)C(=O)N[C@@H](Cc1c[nH]cn1)C(=O)N1CCC[C@H]1C(=O)N[C@@H](CCC(N)=O)C(=O)N2` [[^125I]bcRGDdimer], for which the “Elution rate from size-exclusion resin (high molecular weight fraction), mouse plasma” value in data set [1] is 22%. Also, the “Elution rate from size-exclusion resin (high molecular weight fraction), HSA” value in data set [2] came to 6%. In addition, the logD in data set [3] was -1.98.
For `N=C(N)NCCC[C@@H]1NC(=O)[C@H]2CSCc3cc(cc(c3)CSC[C@H](C(N)=O)NC(=O)[C@H](CC(=O)O)NC(=O)CNC1=O)CSC[C@H](NC(=O)CNC(=O)[C@H](CO)NC(=O)c1ccc(NC(=O)CNC(=O)[C@H](CO)NC(=O)[C@@H]3CCCN3C(=O)[C@@H]3CCCN3C(=O)[C@@H]3CCCN3C(=O)[C@H](CCCCNC(=O)c3cccc(I)c3)NC(=O)CCCc3ccc(I)cc3)cc1)C(=O)N[C@@H](Cc1c[nH]cn1)C(=O)N1CCC[C@H]1C(=O)N[C@@H](CCC(N)=O)C(=O)N2` [[^125I]bcRGDiba] ({Butanoyl(4-(4-I-phenyl))}-K(Benzoyl(3-I))PPPSG[4Abz]SGCHPQ[dC]RGD[dC]-NH2; linker 10-14-18 via TBMB), in data set [1], the “Elution rate from size-exclusion resin (high molecular weight fraction), mouse plasma” value is greater than 80%. For the same molecule, the “Elution rate from size-exclusion resin (high molecular weight fraction), HSA” value in data set [2] is reported as 60%. For the same molecule, in data set [3], the logD was -0.97.
Consider `CCCCCCCCCCCCCCCC(=O)N[C@@H](CCCCNC(=O)c1cccc(I)c1)C(=O)N1CCC[C@H]1C(=O)N1CCC[C@H]1C(=O)N1CCC[C@H]1C(=O)N[C@@H](CO)C(=O)NCC(=O)Nc1ccc(C(=O)N[C@@H](CO)C(=O)NCC(=O)N[C@H]2CSCc3cc4cc(c3)CSC[C@@H](NC(=O)[C@H](CCC(N)=O)NC(=O)[C@@H]3CCCN3C(=O)[C@H](Cc3c[nH]cn3)NC2=O)C(=O)N[C@@H](CCCNC(=N)N)C(=O)NCC(=O)N[C@@H](CC(=O)O)C(=O)N[C@@H](C(N)=O)CSC4)cc1` [[^125I]bcRGDpal] (Palmitoyl-K(Benzoyl(3-I))PPPSG[4Abz]SGCHPQ[dC]RGD[dC]-NH2; linker 10-14-18 via TBMB), for which the “Elution rate from size-exclusion resin (high molecular weight fraction), mouse plasma” value in data set [1] is listed as greater than 80%. In addition, the “Elution rate from size-exclusion resin (high molecular weight fraction), HSA” value in data set [2] is recorded as 80%. Moreover, in data set [3], the logD is 1.71 and > 1.
